{"source": "PubChem BioAssay (NCI)", "note": "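The compound was tested at five concentrations on cells cultured in 96-well plates, with a 48-hour exposure period. GI50 marks 50% less growth. At the TGI there is no net growth.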 Where a SMILES comes first, the peptide text is derived from it. The star is where a group is joined. Cbz = O=C(OCc1ccccc1)*; CH2Cl = ClC*"}
{"test_system": "NCI-H226 lung", "experiment": "NCI-60 cell line screen, 48 h", "units": {"GI50": "µM", "TGI": "µM"}}
{"smiles": "O=C(Nc1ccncc1)C(=O)c1cn(S(=O)(=O)c2ccc(F)cc2)c2ccccc12", "GI50": 9.15, "TGI": "> 100"}
{"smiles": "COc1c(OC[C@H](O)CN2CCOCC2)ccc2c3n(c(=NC(=O)c4cccnc4C)nc12)CCN3", "GI50": 15.4, "TGI": "> 50"}
{"smiles": "O=C(c1ccccc1Br)C(F)(F)F", "TGI": "> 100"}
{"smiles": "COc1ccc(-c2nc3ccc(-c4nc5ccc(N6CCN(c7ccccc7)CC6)cc5[nH]4)cc3[nH]2)cc1OC", "GI50": 14.5, "TGI": 32.6}
{"smiles": "O=C(N[C@@H](c1ccc(Cl)c(Cl)c1)C1CNC1)c1ccc2cnccc2c1", "GI50": 0.626, "TGI": 5.43}
{"smiles": "CO/N=C(\\COc1ccc2c(c1)oc(=O)c1cc(OC)ccc12)c1ccc(OC)cc1", "GI50": "> 100", "TGI": "> 100"}
{"smiles": "O=C1OCC2=C1C(c1cccc(Br)c1)c1cc3c(cc1N2CCO)CCC3", "note": "(stereo unspecified)", "GI50": 0.116, "TGI": 0.761}
{"smiles": "Nc1nc(/C=C\\c2ccc([N+](=O)[O-])s2)nc(N2CCCC2)n1", "GI50": 3.32, "TGI": 21.7}
{"smiles": "Clc1ccc2[nH]cc(-c3nnnn3-c3ccccc3)c2c1", "GI50": 74, "TGI": "> 100"}
{"smiles": "Oc1cccnc1[Se]", "TGI": "> 100"}
{"smiles": "CC(C)Oc1ccc2cc(-c3nn(CC4CCNCC4)c4ncnc(N)c34)ccc2c1", "GI50": 17.4, "TGI": 35.2}
{"smiles": "CS(=O)(=O)CCNCc1nc(-c2ccc3ncnc(Nc4ccc(OCc5cccc(C(F)(F)F)c5)cc4)c3c2)cs1", "GI50": "> 25", "TGI": "> 25"}
{"smiles": "CC(C)CC(NC(=O)OCc1ccccc1)C(=O)NC(Cc1ccccc1)C(=O)CCl", "note": "(stereo not drawn) (Cbz-Leu-Phe-CH2Cl; configuration not given here)", "TGI": 3.98}
{"smiles": "[Cl][Hg][c]1cc[c]([Hg][Cl])o1", "GI50": 21.8, "TGI": 51.8}
{"smiles": "O=C1/C(=C/c2cccc(Cl)c2Cl)N=C(c2ccccc2)N1C1CC1", "GI50": 9.54, "TGI": 23.2}
{"smiles": "CCOC(=O)C(Cc1ccc(CCCC(=O)NCCC(=O)Nc2ccc3nc(C)sc3c2)cc1)C(=O)OCC", "GI50": 36.1, "TGI": "> 100"}
{"smiles": "NCCNc1c2c(c(NCCN)c3[nH]ccc13)C(=O)c1ccccc1C2=O", "GI50": 0.198, "TGI": 0.896}
{"smiles": "COc1cc(Cn2c(-c3ccccc3)c(Cl)c3c2-c2oncc2CC3)cc(OC)c1", "GI50": 13, "TGI": 43.3}
{"smiles": "COc1ccc(-c2nn(-c3ccc(NC(=O)c4ccc(Cl)c(Cl)c4)cc3)cc2-c2ccncc2)cc1Cl", "GI50": "> 28.2", "TGI": "> 50"}
{"smiles": "COc1cc2c3c(n(C)c(=O)c2cc1OC)-c1cc2c(cc1/C3=C\\CN)OCO2", "GI50": 0.515, "TGI": 15.2}
{"smiles": "CN(C)C(n1cc2c(c1)-c1ccc(Cl)cc1C(c1ccccc1F)=NC2)n1cc2c(c1)-c1ccc(Cl)cc1C(c1ccccc1F)=NC2", "TGI": "> 100"}
{"smiles": "COc1ccc(/C=C2/N=C(c3ccccc3)N(c3c(C)n(C)n(-c4ccccc4)c3=O)C2=O)cc1OC", "GI50": "> 100", "TGI": "> 100"}
{"smiles": "C[C@@H]1CC[C@@H]2[C@@H]1[C@H](OC(=O)/C=C/c1ccccc1)[C@]1(C3CCCCC3)C[C@@H](OC(=O)CO)[C@@]2(C)O1", "GI50": 2.06, "TGI": 5.56}
{"smiles": "CCCN1C(=O)N(CCC)C2C1NC(=S)N2/N=C/C=C/c1ccccc1OC", "note": "(stereo unspecified)", "GI50": 4.17, "TGI": "> 43.9"}
{"smiles": "CCn1c2ccccc2c2cc(NC(=O)Nc3ccc([N+](=O)[O-])cc3C)ccc21", "GI50": 4.4, "TGI": 29.2}
{"smiles": "COc1cc2c(cc1OCCCNC(=O)c1cccc3c(=O)c4ccccc4[nH]c13)N=C[C@@H]1CCCN1C2=O", "GI50": "< 0.01", "TGI": "< 0.01"}
{"smiles": "COc1cccc2c1C(=O)c1c(O)c3c(c(O)c1C2=O)C[C@](O)(C(=O)CO)C[C@H]3O[C@@H]1C[C@@H](NC(=O)CCCCCN(C)C2(c3ccc(F)cc3)CC3CCC2C3)[C@H](O)[C@@H](C)O1", "note": "(stereo partly specified)", "GI50": 6.68, "TGI": 16.9}
{"smiles": "CCSc1ncnc2c1ncn2C1OC(CO)C(O)C1O", "note": "(stereo unspecified)", "GI50": 0.845, "TGI": "> 100"}
{"smiles": "COc1ccc2c(c1)C(=O)c1c-2c(N2CCN(C(=O)CNCCNCCO)CC2)nc2ccccc12", "GI50": 10.9, "TGI": 29.5}
{"smiles": "COc1ccc(Nc2nnc(-c3cc(O)ccc3O)s2)cc1", "GI50": 11, "TGI": 39.9}
{"test_system": "SF-295 CNS", "experiment": "NCI-60 cell line screen, 48 h", "units": {"GI50": "µM", "TGI": "µM"}}
{"smiles": "O=C(Nc1ccncc1)C(=O)c1cn(S(=O)(=O)c2ccc(F)cc2)c2ccccc12", "GI50": 3.01, "TGI": 38.1}
{"smiles": "COc1c(OC[C@H](O)CN2CCOCC2)ccc2c3n(c(=NC(=O)c4cccnc4C)nc12)CCN3", "GI50": 0.541, "TGI": 17.2}
{"smiles": "O=C(c1ccccc1Br)C(F)(F)F", "TGI": "> 100"}
{"smiles": "COc1ccc(-c2nc3ccc(-c4nc5ccc(N6CCN(c7ccccc7)CC6)cc5[nH]4)cc3[nH]2)cc1OC", "GI50": 1.73, "TGI": 4.02}
{"smiles": "O=C(N[C@@H](c1ccc(Cl)c(Cl)c1)C1CNC1)c1ccc2cnccc2c1", "GI50": 0.0914, "TGI": 1.21}
{"smiles": "CO/N=C(\\COc1ccc2c(c1)oc(=O)c1cc(OC)ccc12)c1ccc(OC)cc1", "GI50": "> 100", "TGI": "> 100"}
{"smiles": "O=C1OCC2=C1C(c1cccc(Br)c1)c1cc3c(cc1N2CCO)CCC3", "note": "(stereo unspecified)", "GI50": 0.034, "TGI": 8.36}
{"smiles": "Nc1nc(/C=C\\c2ccc([N+](=O)[O-])s2)nc(N2CCCC2)n1", "GI50": 4.4, "TGI": 21.3}
{"smiles": "Clc1ccc2[nH]cc(-c3nnnn3-c3ccccc3)c2c1", "GI50": 13.3, "TGI": 52.7}
{"smiles": "Oc1cccnc1[Se]", "TGI": 97.3}
{"smiles": "CC(C)Oc1ccc2cc(-c3nn(CC4CCNCC4)c4ncnc(N)c34)ccc2c1", "GI50": 3.67, "TGI": 14.2}
{"smiles": "CS(=O)(=O)CCNCc1nc(-c2ccc3ncnc(Nc4ccc(OCc5cccc(C(F)(F)F)c5)cc4)c3c2)cs1", "GI50": 9.45, "TGI": "> 25"}
{"smiles": "CC(C)CC(NC(=O)OCc1ccccc1)C(=O)NC(Cc1ccccc1)C(=O)CCl", "note": "(stereo not drawn) (Cbz-Leu-Phe-CH2Cl; configuration not given here)", "TGI": 43.7}
{"smiles": "[Cl][Hg][c]1cc[c]([Hg][Cl])o1", "GI50": 19.4, "TGI": 58.6}
{"smiles": "O=C1/C(=C/c2cccc(Cl)c2Cl)N=C(c2ccccc2)N1C1CC1", "GI50": 12.7, "TGI": 31.3}
{"smiles": "CCOC(=O)C(Cc1ccc(CCCC(=O)NCCC(=O)Nc2ccc3nc(C)sc3c2)cc1)C(=O)OCC", "GI50": 49.4, "TGI": "> 100"}
{"smiles": "NCCNc1c2c(c(NCCN)c3[nH]ccc13)C(=O)c1ccccc1C2=O", "GI50": "< 0.0341", "TGI": 0.352}
{"smiles": "COc1cc(Cn2c(-c3ccccc3)c(Cl)c3c2-c2oncc2CC3)cc(OC)c1", "GI50": 3.05, "TGI": "> 100"}
{"smiles": "COc1ccc(-c2nn(-c3ccc(NC(=O)c4ccc(Cl)c(Cl)c4)cc3)cc2-c2ccncc2)cc1Cl", "GI50": 0.979, "TGI": 2.67}
{"smiles": "COc1cc2c3c(n(C)c(=O)c2cc1OC)-c1cc2c(cc1/C3=C\\CN)OCO2", "TGI": 0.614}
{"smiles": "CN(C)C(n1cc2c(c1)-c1ccc(Cl)cc1C(c1ccccc1F)=NC2)n1cc2c(c1)-c1ccc(Cl)cc1C(c1ccccc1F)=NC2", "TGI": "> 100"}
{"smiles": "COc1ccc(/C=C2/N=C(c3ccccc3)N(c3c(C)n(C)n(-c4ccccc4)c3=O)C2=O)cc1OC", "GI50": "> 100", "TGI": "> 100"}
{"smiles": "C[C@@H]1CC[C@@H]2[C@@H]1[C@H](OC(=O)/C=C/c1ccccc1)[C@]1(C3CCCCC3)C[C@@H](OC(=O)CO)[C@@]2(C)O1", "GI50": 3.6, "TGI": 13.1}
{"smiles": "CCCN1C(=O)N(CCC)C2C1NC(=S)N2/N=C/C=C/c1ccccc1OC", "note": "(stereo unspecified)", "GI50": 0.487, "TGI": 29.4}
{"smiles": "CCn1c2ccccc2c2cc(NC(=O)Nc3ccc([N+](=O)[O-])cc3C)ccc21", "GI50": 2.29, "TGI": 9.13}
{"smiles": "COc1cc2c(cc1OCCCNC(=O)c1cccc3c(=O)c4ccccc4[nH]c13)N=C[C@@H]1CCCN1C2=O", "GI50": "< 0.0508", "TGI": 4.46}
{"smiles": "COc1cccc2c1C(=O)c1c(O)c3c(c(O)c1C2=O)C[C@](O)(C(=O)CO)C[C@H]3O[C@@H]1C[C@@H](NC(=O)CCCCCN(C)C2(c3ccc(F)cc3)CC3CCC2C3)[C@H](O)[C@@H](C)O1", "note": "(stereo partly specified)", "GI50": 5.79, "TGI": 13.3}
{"smiles": "CCSc1ncnc2c1ncn2C1OC(CO)C(O)C1O", "note": "(stereo unspecified)", "GI50": 0.843, "TGI": "> 43.1"}
{"smiles": "COc1ccc2c(c1)C(=O)c1c-2c(N2CCN(C(=O)CNCCNCCO)CC2)nc2ccccc12", "GI50": 12.4, "TGI": 32.3}
{"smiles": "COc1ccc(Nc2nnc(-c3cc(O)ccc3O)s2)cc1", "GI50": "> 50", "TGI": "> 50"}
